According to patent US7259144B2, “Methods for diagnosing and treatment of hyperphosphatemic conditions using FGF20 polypeptides” (CuraGen Corporation, priority 2003, dated 2007):

How the values were obtained:
Caco2 cells [1] = assay: Caco2 cell proliferation (3H thymidine incorporation) with FGF-20 and kinase inhibitors; assay type: cell-based; settings: inhibitor added 1 hr before FGF-20 (100 ng/ml), PD098059 1, 5, 20, 40 μM, SB203580 1, 10, 20 μM
Description: FIG. 7 depicts effect of kinase inhibitors in the proliferation of Caco2 cells. Caco2 cells were incubated with FGF-20 (100 ng/ml) in the presence of various concentrations (1, 5, 20 and 40 μM) of PD098059, inhibitor of MEK which is upstream of ERK or various concentrations (1, 10, 20 μM) of SB203580, inhibitor of p38 MAPK inhibitor.
In addition to the above results, MEK inhibitor PD098059 (1, 5, 20, and 40μM CALBIOCHEM, CA), and p38 MAPK inhibitor SB203580 (1,10,20 μM CALBIOCHEM, CA) were added to the Caco2 cell cultures 1 hr before FGF-20 treatment. Cellular proliferation was tested by standard 3H thymidine incorporation assay known in the art.

Caco2 cells [2] = assay: Expression of signal transducing kinases in Caco2 cells with FGF-20; assay type: cell-based
Description: FIG. 4 depicts effect of FGF20 (CG53135) in stimulation of kinases in Caco2 cells. Expression of signal transducing kinases was analyzed after incubation of Caco2 cells with FGF-20 (100 ng/ml) for different time points (10, 30, 60 mins).
(§1) FIG. 6 depicts Effect of FGF-20 on expression of kinases in intestinal epithelial cells. Caco2 cells were incubated with FGF-20 (100 ng/ml) for 10, 30, 60 minutes and expression of p-Elk-1, p-ATF-2 and p-PKC was analyzed. Similarly, HT-29 cells were incubated with FGF-20 (100 ng/ml) for 10, 30, 60 minutes and expression of C-Fos and C-Jun was analyzed.
(§2) MAPK-dependent mechanism may be involved in the regulation of phosphate uptake by FGF signaling. To test this hypothesis, various kinases were tested for their expression in the presence of 100 ng/ml of FGF-20, in Caco2 cells. […] In HT-29 cells, C-Fos and C-Jun were induced, when cultured with FGF-20 (FIG. 6).

[3] = Serum phosphate levels after CG53135-05 treatment, rat model; assay type: in vivo; settings: slow bolus i.v. once daily, 0.05, 5, 50 mg/kg, dose-dependent (FIG. 1)
Description: (§3) To evaluate the role of FGF20 in reduction of phosphate levels, two different animal models (rat and rhesus monkeys) were tested for serum phosphates following treatment with FGF20. Recombinant human FGF20 and the serum phosphate levels were measured. General protocols for the rat and Rhesus monkey models are outlined in the following Tables 1 (for the rat) and 2 (for the Rhesus monkey) below:
(§4) Both animal groups were dosed via a slow bolus intravenous injection in the tail vein, once daily for 14 days. The first day of dosing was designated as study day (“SD”) 1. Animals were dosed through SD 14.

NIH 3T3 cells = assay: Induction of DNA synthesis (BrdU incorporation) in NIH 3T3 cells; assay type: cell-based; settings: serum-starved NIH 3T3 cells; 18 h factor, 4 h BrdU incorporation
Description: Receptor Specificity NIH 3T3 cells were cultured in 96-well plates to approximately 100% confluence, washed and fed with DMEM without supplements (Life Technologies), and incubated for 24 h. Recombinant CG53135-01 or control protein was then added to the cells for 18 h. Control proteins used were aFGF (positive control) and platelet derived growth factor-BB (PDGFBB) (negative control). To analyze the effect of soluble FGFRs on CG53135-05 activity, recombinant CG53135-05, aFGF, or PDGF-BB (final concentrations of 10, 5 and 3 ng/mL, respectively), were mixed with soluble receptors (final concentrations of 0.2, 1 and 5 ug/mL), and incubated for 30 min at 37° C. prior to addition to serum-starved NIH 3T3 cells. Factor concentrations represent the amount of ligand needed to generate a half maximal BrdU response in NIH 3T3 cells. Soluble FGFRs were Fc chimeras of the following receptor forms (FGFR1β(IIIc); FGFR2β(IIIb); FGFR2α(IIIb); FGFR2α(IIIc); FGFR3α(IIIc); FGFR4) and were obtained from R&D Systems (Minneapolis, Minn.). The BrdU assay was performed according to the manufacturer's specifications (Roche Molecular Biochemicals, Indianapolis, Ind.) using a 4 h BrdU incorporation time.

[4] = Serum phosphate levels after CG53135-05 treatment, Rhesus monkey model; assay type: in vivo; settings: slow bolus i.v. once daily, 1, 10 mg/kg, dose-dependent (FIG. 2)
Description: as §3, §4

HT-29 cells = assay: Expression of C-Fos and C-Jun in HT-29 cells with FGF-20; assay type: cell-based; settings: 100 ng/ml, 10, 30, 60 minutes
Description: as §1, §2

OK cells = assay: Phosphate uptake in OK cells; assay type: cell-based, opossum; settings: at 50 ng/ml
Description: FIG. 8 depicts effect of FGF9 protein in phosphate transport. OK cells were treated with various concentrations of FGF9 protein and phosphate uptake was measured as noted in Example 6.
FIG. 9 depicts effect of FGF10 protein in phosphate transport. OK cells were treated with various concentrations of FGF10 protein and phosphate uptake was measured as noted in Example 6.
Measurement of phosphate transport is performed in cultured renal proximal tubular epithelial cell line using opossum kidney (OK) cells, in the presence of FGF-20 (CG53135-05). Briefly, OK cells are grown at 37° C. in Dulbecco's modified Eagle's medium with 10% fetal calf serum and seeded in multi-well dishes (6, 24, 96 well dishes). The phosphate uptake in OK cells is determined according to the method described by Hafdi et al (Biochem. J. 1996, 320:615-621).
Role of FGF9 and FGF10 in phosphate uptake was measured by the method described in Biochem. J. 1996, 320:615-621.

## COc1cccc(-c2cc(=O)c3ccccc3o2)c1N [PD098059]
Caco2 cells [1]
  cellular proliferation (3H thymidine incorporation): decrease in cellular proliferation

## C[S+]([O-])c1ccc(-c2nc(-c3ccncc3)c(-c3ccc(F)cc3)[nH]2)cc1 (stereo not drawn) [SB203580]
Caco2 cells [1]
  cellular proliferation (3H thymidine incorporation): decrease in cellular proliferation

## CG53135-05: Recombinant human fibroblast growth factor 20 produced in E. coli; Swiss-Prot Q9NP95; SEQ ID NO:1
Caco2 cells [2]; 100 ng/ml, 10, 30, 60 mins
  expression of other kinases tested: no other kinase tested, showed any significant induction
  phosphorylated MAPK (p-p38MAPK) expression: induced
Caco2 cells [2]; 100 ng/ml, 10, 30, 60 minutes
  expression of phosphorylated ATF-2: increased expression
  expression of phosphorylated Elk-1: increased expression
  expression of phosphorylated Protein Kinase C: minimal induction
[3]
  serum phosphate levels: Statistically significant reductions
NIH 3T3 cells
  amount of ligand needed to generate a half maximal BrdU response: 10 ng/mL
[4]
  serum phosphate levels: Statistically significant reductions
HT-29 cells
  C-Fos expression: induced
  C-Jun expression: induced

## aFGF: positive control protein; factor known to interact with all of the FGFR's under analysis [reference compound]
NIH 3T3 cells
  amount of ligand needed to generate a half maximal BrdU response: 5 ng/mL

B1: FGF10: human FGF 10 protein, Swiss-Prot Accession No: O15520 (protein, UniProt O15520 38-208, looked up)
Fibroblast growth factor 10: QALGQDMVSPEATNSSSSSFSSPSSAGRHVRSYNHLQGDVRWRKLFSFTKYFLKIEKNGKVSGTKKENCPYSILEITSVEIGVVAVKAINSNYYLAMNKKGKLYGSKEFNNDCKLKERIEENGYNTYASFNWQHNGRQMYVALNGKGAPRRGQKTRRKNTSAHFLPMVVHS
OK cells
  phosphate transport: more efficient in inhibiting the phosphate transport

B2: PDGF-BB: platelet derived growth factor-BB, negative control protein (protein, UniProt P01127 82-190, looked up)
Platelet-derived growth …: SLGSLTIAEPAMIAECKTRTEVFEISRRLIDRTNANFLVWPPCVEVQRCSGCCNNRNVQCRPTQVQLRPVQVRKIEIVRKKPIFKKATVTLEDHLACKCETVAAARPVT
modifications: homodimer
notes: platelet derived growth factor-BB, negative control protein
NIH 3T3 cells
  amount of ligand needed to generate a half maximal BrdU response: 3 ng/mL
